Source: patent US20250320205A1, “STAT6 DEGRADERS” (Gilead Sciences, Inc., priority 2024, published 2025)
pEC50: −log10 of the molar value. One block for each compound: values may come before it.

Key:
STAT6 = target: T1, STAT6 (Homo sapiens, UniProt P42226); test: STAT6 Degrader Assay (HiBiT based, HeLa LgBiT clone 4.14 cells); type: cell-based; conditions: geometric mean across assay runs and compound batches; DC50 provided for test compounds with >80% Emax; read-out: STAT6 degradation DC50
T1 construct: These cells express endogenous STAT6; host or cells: HeLa LgBiT clone 4.14 (CRISPR knock-in of HiBiT into the endogenous STAT6 gene)
T1 sequence (P42226 1-847): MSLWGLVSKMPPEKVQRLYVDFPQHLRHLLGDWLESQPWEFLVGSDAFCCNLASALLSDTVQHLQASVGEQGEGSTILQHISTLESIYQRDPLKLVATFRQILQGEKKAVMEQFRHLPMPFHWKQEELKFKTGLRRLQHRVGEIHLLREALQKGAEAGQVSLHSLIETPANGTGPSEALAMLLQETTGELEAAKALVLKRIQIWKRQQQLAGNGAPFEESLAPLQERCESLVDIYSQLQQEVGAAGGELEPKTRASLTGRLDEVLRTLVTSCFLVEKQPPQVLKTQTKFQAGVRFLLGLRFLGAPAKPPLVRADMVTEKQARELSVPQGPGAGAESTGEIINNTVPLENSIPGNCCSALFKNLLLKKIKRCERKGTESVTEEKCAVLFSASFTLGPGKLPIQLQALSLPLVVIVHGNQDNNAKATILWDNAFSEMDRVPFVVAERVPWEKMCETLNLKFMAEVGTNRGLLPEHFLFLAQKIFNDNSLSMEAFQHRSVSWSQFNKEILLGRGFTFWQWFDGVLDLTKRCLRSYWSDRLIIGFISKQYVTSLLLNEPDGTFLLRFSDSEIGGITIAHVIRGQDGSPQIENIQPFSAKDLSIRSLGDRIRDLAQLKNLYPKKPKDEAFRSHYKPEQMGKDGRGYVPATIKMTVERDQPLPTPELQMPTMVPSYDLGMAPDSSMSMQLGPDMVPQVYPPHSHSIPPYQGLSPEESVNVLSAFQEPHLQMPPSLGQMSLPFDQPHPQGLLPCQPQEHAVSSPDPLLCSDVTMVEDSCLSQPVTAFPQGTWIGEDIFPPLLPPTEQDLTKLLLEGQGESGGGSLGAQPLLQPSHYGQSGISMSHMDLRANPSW
Procedure, shortened: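 DC50 (nM) comes from NanoBiT luminescence of HiBiT-knock-in STAT6 in HeLa LgBiT clone 4.14 cells, treated 4-24 h at 37° C. Luminescence reflects non-degraded STAT6, with 50 μM terfenadine wells taken as full degradation.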

[1] = tested on: Eotaxin-3 (CCL26) release; test: Human Whole Blood Eotaxin-3 Assay (IL-4 stimulated); type: cell-based; conditions: Homo sapiens; geometric mean across assay runs and compound batches; EC50 provided for test compounds with >80% Emax
Procedure, shortened: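 Lithium-heparin human whole blood preincubated 2 h at 37 °C with compounds (4-fold dilutions, triplicate, 0.5% DMSO final). Then stimulated with 400 pM final recombinant human IL-4 for 48 h. Eotaxin-3 in supernatant quantified by MSD immunoassay.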

Compound: CNc1ccn(-c2ccnc3c2cc([C@H](C)N2CC=C(c4c(C)cc(C(=O)N5CCC(CN6CCN(c7ncc(NC8CCC(=O)NC8=O)cc7F)C[C@H]6C)CC5)cc4F)CC2)n3C)c(=O)c1 (stereo partly drawn) [Example 2g113, 3-((5-fluoro-6-((R)-4-((1-(3-fluoro-5-methyl-4-(1-((S)-1-(1-methyl-4-(4-(methyl-amino)-2-oxopyridin-1(2H)-yl)-1H-pyrrolo[2,3-b]pyridin-2-yl)ethyl)-1,2,3,6-tetrahydro-pyridin-4-yl)benzoyl)piperi-din-4-yl)methyl)-3-methyl-piperazin-1-yl)pyridin-3-yl)-amino)piperidine-2,6-dione]
DC50 (STAT6): 3.5 nM
pEC50 [1]: 7.86

Compound: CNc1cc(=O)n(-c2ccnc3c2cc([C@H](C)N2CC=C(c4c(F)cc(C(=O)N5CCC(CN6CCN(c7ccc(NC8CCC(=O)NC8=O)cc7F)CC6)CC5)cc4F)CC2)n3C)cc1F (stereo partly drawn) [Example 2g119, 3-((4-(4-((1-(3,5-difluoro-4-(1-((S)-1-(4-(5-fluoro-4-(methylamino)-2-oxopyridin-1(2H)-yl)-1-methyl-1H-pyr-rolo[2,3-b]pyridin-2-yl)ethyl)-1,2,3,6-tetrahydropyridin-4-yl)benzoyl)piperidin-4-yl)-methyl)piperazin-1-yl)-3-fluorophenyl)amino)piperi-dine-2,6-dione]
DC50 (STAT6): 14 nM
pEC50 [1]: 7.32

Compound: CNc1cc(=O)n(-c2ccnc3c2cc(CN2CCC(c4c(F)cc(C(=O)N5CCn6nc(CN7CCC(c8ccc(NC9CCC(=O)NC9=O)c(OC)c8)CC7)cc6C5)cc4F)CC2)n3C)cc1F (stereo not shown) [Example 2g122, 3-((4-(1-((5-(3,5-difluoro-4-(1-((4-(5-fluoro-4-(methyl-amino)-2-oxopyridin-1(2H)-yl)-1-methyl-1H-pyrrolo[2,3-b]pyridin-2-yl)methyl)piperi-din-4-yl)benzoyl)-4,5,6,7-tetrahydropyrazolo[1,5-a]pyr-azin-2-yl)methyl)piperidin-4-yl)-2-methoxyphenyl)amino)-piperidine-2,6-dione]
DC50 (STAT6): 1.8 nM
pEC50 [1]: 8.44

Stronger by DC50 (STAT6), values ahead:

DC50 (STAT6): 0.3 nM
pEC50 [1]: 9.30
Compound: CNc1ccn(-c2ccnc3c2cc([C@H](C)N2CC=C(c4c(C)cc(C(=O)N5CCn6nc(CN7CCC(c8ccc(NC9CCC(=O)NC9=O)c(OC)c8)CC7)cc6C5)cc4F)CC2)n3C)c(=O)c1 (stereo partly drawn) [Example 2g116, 3-((4-(1-((5-(3-fluoro-5-meth-yl-4-(1-((S)-1-(1-methyl-4-(4-(methylamino)-2-oxopyridin-1(2H)-yl)-1H-pyrrolo[2,3-b]pyridin-2-yl)ethyl)-1,2,3,6-tetrahydropyridin-4-yl)benzo-yl)-4,5,6,7-tetrahydropyrazolo [1,5-a]pyrazin-2-l)methyl)-piperidin-4-yl)-2-methoxy-phenyl)amino)-piperidine-2,6-dione]

DC50 (STAT6): 0.1 nM
pEC50 [1]: 9.70
Compound: CNc1ccn(-c2ccnc3c2cc([C@H](C)N2CC=C(c4c(C)cc(C(=O)N5CCn6nc(CN7CCC(c8cc(OC)c(NC9CCC(=O)NC9=O)cc8F)CC7)cc6C5)cc4F)CC2)n3C)c(=O)c1 (stereo partly drawn) [Example 2g128, 3-((5-fluoro-4-(1-((5-(3-fluoro-5-methyl-4-(1-((S)-1-(1-methyl-4-(4-(methyl-amino)-2-oxopyridin-1(2H)-yl)-1H-pyrrolo[2,3-b]pyridin-2-yl)ethyl)-1,2,3,6-tetrahydro-pyridin-4-yl)benzoyl)-4,5,6,7-tetrahydropyrazolo[1,5-a]pyr-azin-2-yl)methyl)piperidin-4-yl)-2-methoxyphenyl)amino)-piperidine-2,6-dione]
